What was measured:
[1] = molecular target: Splicing factor U2AF 35 kDa subunit (Homo sapiens) (UniProt Q01081)
[2] = molecular target: Probable helicase with zinc finger domain (Homo sapiens) (UniProt P42694)
[3] = species: Homo sapiens
[4] = molecular target: Cytoplasmic FMR1-interacting protein 2 (Homo sapiens) (UniProt Q96F07)
[5] = molecular target: Oxysterol-binding protein-related protein 3 (Homo sapiens) (UniProt Q9H4L5)
[6] = molecular target: Structural maintenance of chromosomes protein 3 (Homo sapiens) (UniProt Q9UQE7)
[7] = molecular target: PAT complex subunit CCDC47 (Homo sapiens) (UniProt Q96A33)
[8] = molecular target: Presenilin-associated rhomboid-like protein, mitochondrial (Homo sapiens) (UniProt Q9H300)
[9] = molecular target: Programmed cell death protein 6 (Homo sapiens) (UniProt O75340)
[10] = molecular target: Large ribosomal subunit protein bL21m (Homo sapiens) (UniProt Q7Z2W9)
[11] = molecular target: Ras-related protein Rab-5C (Homo sapiens) (UniProt P51148)
[12] = molecular target: V-type proton ATPase 16 kDa proteolipid subunit c (Homo sapiens) (UniProt P27449)
[13] = molecular target: Emerin (Homo sapiens) (UniProt P50402)
[14] = molecular target: Protein MON2 homolog (Homo sapiens) (UniProt Q7Z3U7)
[15] = molecular target: Rootletin (Homo sapiens) (UniProt Q5TZA2)
[16] = molecular target: Polypyrimidine tract-binding protein 1 (Homo sapiens) (UniProt P26599)
[17] = molecular target: 26S proteasome non-ATPase regulatory subunit 8 (Homo sapiens) (UniProt P48556)
[18] = molecular target: Very-long-chain (3R)-3-hydroxyacyl-CoA dehydratase 2 (Homo sapiens) (UniProt Q6Y1H2)
[19] = molecular target: Citron Rho-interacting kinase (Homo sapiens) (UniProt O14578)
[20] = molecular target: Receptor-interacting serine/threonine-protein kinase 3 (Homo sapiens) (UniProt Q9Y572)
[21] = molecular target: Heterogeneous nuclear ribonucleoprotein A/B (Homo sapiens) (UniProt Q99729)
[22] = molecular target: Dynamin-2 (Homo sapiens) (UniProt P50570)
[23] = molecular target: Cathepsin B (Homo sapiens) (UniProt P07858)
[24] = molecular target: Peroxiredoxin-1 (Homo sapiens) (UniProt Q06830)
[25] = molecular target: Nucleolar protein 58 (Homo sapiens) (UniProt Q9Y2X3)
[26] = molecular target: Peptidyl-prolyl cis-trans isomerase H (Homo sapiens) (UniProt O43447)
[27] = molecular target: Activator of 90 kDa heat shock protein ATPase homolog 1 (Homo sapiens) (UniProt O95433)
[28] = molecular target: c-Myc-binding protein (Homo sapiens) (UniProt Q99417)
[29] = molecular target: Transmembrane protein 94 (Homo sapiens) (UniProt Q12767)
[30] = molecular target: Zinc finger CCHC domain-containing protein 8 (Homo sapiens) (UniProt Q6NZY4)
[31] = molecular target: FAD synthase (Homo sapiens) (UniProt Q8NFF5)
[32] = molecular target: Cyclin-I (Homo sapiens) (UniProt Q14094)
[33] = molecular target: Ribosome biogenesis protein WDR12 (Homo sapiens) (UniProt Q9GZL7)
[34] = molecular target: Acetyl-CoA carboxylase 2 (Homo sapiens) (UniProt O00763)
[35] = molecular target: Rab GDP dissociation inhibitor beta (Homo sapiens) (UniProt P50395)
[36] = molecular target: Coatomer subunit beta' (Homo sapiens) (UniProt P35606)
[37] = molecular target: Conserved oligomeric Golgi complex subunit 8 (Homo sapiens) (UniProt Q96MW5)
[38] = molecular target: Small ribosomal subunit protein eS7 (Homo sapiens) (UniProt P62081)
[39] = species: Homo sapiens; remark: listed apart in the source
[40] = species: Homo sapiens; remark: listed apart in the source
[41] = molecular target: ATP synthase peripheral stalk subunit OSCP, mitochondrial (Homo sapiens) (UniProt P48047)
[42] = molecular target: C-1-tetrahydrofolate synthase, cytoplasmic (Homo sapiens) (UniProt P11586)
[43] = molecular target: Dynamin-like GTPase OPA1, mitochondrial (Homo sapiens) (UniProt O60313)
[44] = molecular target: Proteasome subunit alpha type-3 (Homo sapiens) (UniProt P25788)
[45] = molecular target: Serine-threonine kinase receptor-associated protein (Homo sapiens) (UniProt Q9Y3F4)
[46] = molecular target: Hypoxia up-regulated protein 1 (Homo sapiens) (UniProt Q9Y4L1)
[47] = molecular target: Thioredoxin reductase 1, cytoplasmic (Homo sapiens) (UniProt Q16881)
Also: assay method not described here.

Ras-related protein Rab-5C (Homo sapiens), sequence (P51148 whole entry): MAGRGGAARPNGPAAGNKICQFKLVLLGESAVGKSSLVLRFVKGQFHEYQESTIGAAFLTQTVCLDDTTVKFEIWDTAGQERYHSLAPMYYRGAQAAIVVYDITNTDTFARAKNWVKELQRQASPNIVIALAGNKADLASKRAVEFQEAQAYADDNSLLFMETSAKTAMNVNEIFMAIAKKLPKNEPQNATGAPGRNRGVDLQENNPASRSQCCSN
26S proteasome non-ATPase regulatory subunit 8 (Homo sapiens), sequence (P48556 whole entry): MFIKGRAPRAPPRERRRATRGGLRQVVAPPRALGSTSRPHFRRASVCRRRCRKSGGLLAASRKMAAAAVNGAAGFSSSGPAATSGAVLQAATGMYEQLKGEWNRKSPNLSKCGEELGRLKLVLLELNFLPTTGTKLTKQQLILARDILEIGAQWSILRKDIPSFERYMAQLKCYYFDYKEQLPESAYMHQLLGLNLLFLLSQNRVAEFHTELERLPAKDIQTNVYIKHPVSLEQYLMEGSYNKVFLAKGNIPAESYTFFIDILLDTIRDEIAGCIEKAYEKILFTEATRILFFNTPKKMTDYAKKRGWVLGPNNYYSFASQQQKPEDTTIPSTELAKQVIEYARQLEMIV
Dynamin-2 (Homo sapiens), sequence (P50570 whole entry): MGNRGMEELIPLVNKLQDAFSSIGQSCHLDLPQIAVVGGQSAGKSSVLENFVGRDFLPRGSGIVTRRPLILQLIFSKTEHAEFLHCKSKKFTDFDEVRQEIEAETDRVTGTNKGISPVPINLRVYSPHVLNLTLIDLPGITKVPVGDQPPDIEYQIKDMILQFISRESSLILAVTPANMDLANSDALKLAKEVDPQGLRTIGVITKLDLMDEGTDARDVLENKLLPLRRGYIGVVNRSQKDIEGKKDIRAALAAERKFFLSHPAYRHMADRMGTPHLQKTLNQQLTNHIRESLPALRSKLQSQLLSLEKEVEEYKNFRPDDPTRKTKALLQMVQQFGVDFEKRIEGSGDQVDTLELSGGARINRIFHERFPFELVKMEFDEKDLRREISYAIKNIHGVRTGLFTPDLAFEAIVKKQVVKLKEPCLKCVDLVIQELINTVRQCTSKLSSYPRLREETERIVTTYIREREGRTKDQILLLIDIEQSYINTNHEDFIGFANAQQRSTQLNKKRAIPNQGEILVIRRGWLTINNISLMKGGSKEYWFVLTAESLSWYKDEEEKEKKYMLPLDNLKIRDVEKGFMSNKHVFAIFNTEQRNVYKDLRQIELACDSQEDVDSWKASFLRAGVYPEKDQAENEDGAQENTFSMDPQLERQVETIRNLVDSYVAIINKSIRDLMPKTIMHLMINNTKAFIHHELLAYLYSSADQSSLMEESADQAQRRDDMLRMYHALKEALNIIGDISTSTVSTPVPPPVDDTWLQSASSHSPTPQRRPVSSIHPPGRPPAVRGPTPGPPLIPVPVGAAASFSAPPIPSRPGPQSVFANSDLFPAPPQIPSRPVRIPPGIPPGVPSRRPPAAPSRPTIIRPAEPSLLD
Peptidyl-prolyl cis-trans isomerase H (Homo sapiens), sequence (O43447 whole entry): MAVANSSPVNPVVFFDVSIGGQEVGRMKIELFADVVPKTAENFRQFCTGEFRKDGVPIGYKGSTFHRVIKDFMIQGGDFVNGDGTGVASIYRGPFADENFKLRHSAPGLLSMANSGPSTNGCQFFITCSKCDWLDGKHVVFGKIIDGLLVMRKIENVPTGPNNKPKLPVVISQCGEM
Coatomer subunit beta' (Homo sapiens), sequence (P35606 whole entry): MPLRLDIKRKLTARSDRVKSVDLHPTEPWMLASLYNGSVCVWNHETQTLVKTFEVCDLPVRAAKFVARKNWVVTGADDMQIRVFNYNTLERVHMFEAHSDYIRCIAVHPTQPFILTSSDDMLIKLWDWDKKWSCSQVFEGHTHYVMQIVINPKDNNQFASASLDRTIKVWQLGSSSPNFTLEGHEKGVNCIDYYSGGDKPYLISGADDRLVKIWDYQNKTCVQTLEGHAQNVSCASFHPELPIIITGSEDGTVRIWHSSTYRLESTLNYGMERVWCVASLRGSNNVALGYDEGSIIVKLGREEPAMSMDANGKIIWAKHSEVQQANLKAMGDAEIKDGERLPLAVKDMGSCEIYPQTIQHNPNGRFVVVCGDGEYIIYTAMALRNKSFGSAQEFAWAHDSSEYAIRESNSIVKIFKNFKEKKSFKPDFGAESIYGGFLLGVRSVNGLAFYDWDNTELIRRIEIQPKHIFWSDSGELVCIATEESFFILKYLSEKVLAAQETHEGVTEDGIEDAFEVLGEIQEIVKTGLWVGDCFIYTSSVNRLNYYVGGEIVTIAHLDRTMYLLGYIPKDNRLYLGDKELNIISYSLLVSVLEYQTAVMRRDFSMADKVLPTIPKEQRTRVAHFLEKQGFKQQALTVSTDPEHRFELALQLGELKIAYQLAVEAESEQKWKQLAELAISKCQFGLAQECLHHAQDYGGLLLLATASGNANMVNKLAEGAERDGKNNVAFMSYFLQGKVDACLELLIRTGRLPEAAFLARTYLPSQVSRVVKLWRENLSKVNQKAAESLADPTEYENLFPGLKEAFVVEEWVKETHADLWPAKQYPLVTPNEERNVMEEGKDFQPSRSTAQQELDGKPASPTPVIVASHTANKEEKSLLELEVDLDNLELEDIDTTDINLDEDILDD
Programmed cell death protein 6 (Homo sapiens), sequence (O75340 whole entry): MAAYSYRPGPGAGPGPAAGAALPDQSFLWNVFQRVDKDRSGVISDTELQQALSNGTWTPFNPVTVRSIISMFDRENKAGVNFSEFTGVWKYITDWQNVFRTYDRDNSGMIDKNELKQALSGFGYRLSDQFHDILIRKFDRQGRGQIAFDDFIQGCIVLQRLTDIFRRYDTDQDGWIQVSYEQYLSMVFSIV
Structural maintenance of chromosomes protein 3 (Homo sapiens), sequence (Q9UQE7 whole entry): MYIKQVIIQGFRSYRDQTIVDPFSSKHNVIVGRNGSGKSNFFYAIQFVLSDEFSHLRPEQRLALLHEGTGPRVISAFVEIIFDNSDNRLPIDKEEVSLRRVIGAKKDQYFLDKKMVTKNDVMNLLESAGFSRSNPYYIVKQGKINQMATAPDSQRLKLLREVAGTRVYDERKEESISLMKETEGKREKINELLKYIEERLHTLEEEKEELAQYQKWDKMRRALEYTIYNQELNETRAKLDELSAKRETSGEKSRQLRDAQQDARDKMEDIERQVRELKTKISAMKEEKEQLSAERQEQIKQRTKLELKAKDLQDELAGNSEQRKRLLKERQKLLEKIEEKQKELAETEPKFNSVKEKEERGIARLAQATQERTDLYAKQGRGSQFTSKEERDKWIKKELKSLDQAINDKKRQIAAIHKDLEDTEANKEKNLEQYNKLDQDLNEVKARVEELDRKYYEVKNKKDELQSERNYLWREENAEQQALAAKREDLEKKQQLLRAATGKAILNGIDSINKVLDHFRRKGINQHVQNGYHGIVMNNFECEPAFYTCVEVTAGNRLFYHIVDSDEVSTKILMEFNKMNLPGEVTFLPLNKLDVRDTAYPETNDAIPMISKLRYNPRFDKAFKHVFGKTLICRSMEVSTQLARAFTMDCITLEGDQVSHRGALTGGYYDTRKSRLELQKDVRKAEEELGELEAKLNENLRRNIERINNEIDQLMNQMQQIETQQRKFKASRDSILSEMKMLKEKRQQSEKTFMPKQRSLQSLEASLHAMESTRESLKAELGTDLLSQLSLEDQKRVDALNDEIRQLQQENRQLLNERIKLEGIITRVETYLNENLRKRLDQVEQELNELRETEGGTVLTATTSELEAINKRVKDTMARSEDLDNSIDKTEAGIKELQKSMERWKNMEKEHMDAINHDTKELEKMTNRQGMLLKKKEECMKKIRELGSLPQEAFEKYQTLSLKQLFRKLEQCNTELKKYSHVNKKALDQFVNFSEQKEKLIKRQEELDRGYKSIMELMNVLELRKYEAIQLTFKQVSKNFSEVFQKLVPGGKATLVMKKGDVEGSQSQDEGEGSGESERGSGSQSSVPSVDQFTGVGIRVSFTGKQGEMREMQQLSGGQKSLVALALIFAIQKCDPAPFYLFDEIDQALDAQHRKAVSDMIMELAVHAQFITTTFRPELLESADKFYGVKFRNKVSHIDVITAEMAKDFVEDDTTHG
Rab GDP dissociation inhibitor beta (Homo sapiens), sequence (P50395 whole entry): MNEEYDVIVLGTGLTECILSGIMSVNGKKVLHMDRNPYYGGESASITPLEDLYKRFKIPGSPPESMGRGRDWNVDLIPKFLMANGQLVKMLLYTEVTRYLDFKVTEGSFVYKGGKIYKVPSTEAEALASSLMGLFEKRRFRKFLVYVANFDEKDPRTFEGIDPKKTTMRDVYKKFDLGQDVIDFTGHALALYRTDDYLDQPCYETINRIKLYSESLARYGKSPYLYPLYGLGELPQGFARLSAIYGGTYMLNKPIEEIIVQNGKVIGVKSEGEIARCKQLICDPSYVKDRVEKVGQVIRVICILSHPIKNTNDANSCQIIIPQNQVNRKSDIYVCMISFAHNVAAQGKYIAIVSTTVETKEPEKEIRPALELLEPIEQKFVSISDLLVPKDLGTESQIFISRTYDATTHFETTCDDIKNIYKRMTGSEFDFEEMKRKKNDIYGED
PAT complex subunit CCDC47 (Homo sapiens), sequence (Q96A33 whole entry, one chain of several): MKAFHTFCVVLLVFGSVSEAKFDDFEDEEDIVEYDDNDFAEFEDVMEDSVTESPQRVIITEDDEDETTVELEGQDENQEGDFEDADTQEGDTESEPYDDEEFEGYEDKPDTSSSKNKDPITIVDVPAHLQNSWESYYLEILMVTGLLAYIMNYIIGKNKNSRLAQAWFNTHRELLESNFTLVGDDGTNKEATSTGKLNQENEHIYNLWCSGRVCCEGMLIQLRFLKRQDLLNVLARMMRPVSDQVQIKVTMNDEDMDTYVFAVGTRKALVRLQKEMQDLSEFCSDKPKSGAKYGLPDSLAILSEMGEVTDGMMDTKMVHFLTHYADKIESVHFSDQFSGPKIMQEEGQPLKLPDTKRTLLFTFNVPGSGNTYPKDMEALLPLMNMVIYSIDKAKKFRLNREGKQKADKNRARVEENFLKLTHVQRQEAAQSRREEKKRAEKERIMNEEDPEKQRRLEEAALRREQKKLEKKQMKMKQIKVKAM
c-Myc-binding protein (Homo sapiens), sequence (Q99417 whole entry): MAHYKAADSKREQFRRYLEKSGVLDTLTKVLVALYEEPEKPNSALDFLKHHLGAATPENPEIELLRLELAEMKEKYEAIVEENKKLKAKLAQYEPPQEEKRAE

SMILES | ED50 [1] | ED50 [6] | ED50 [7] | ED50 [9] | ED50 [11] | ED50 [13] | ED50 [14] | ED50 [16] | ED50 [17] | ED50 [19] | ED50 [20] | ED50 [21] | ED50 [22] | ED50 [23] | ED50 [24] | ED50 [26] | ED50 [35] | ED50 [36] | ED50 [37] | ED50 [38] | other results
Cc1ccc(C(=O)Nc2cccc(C(F)(F)F)c2)cc1Nc1nc(-c2cccnc2)nc2c1cnn2C | 0.000531 µM | 0.0434 µM | 0.136 µM | 1.36 µM | 19.2 µM | 45.5 µM | 0.00382 µM | 3.12 µM | 8.9 µM | 0.771 µM | 2.75 µM | 0.0215 µM | 21.9 µM | 60.4 µM | 0.0459 µM | 2.05 µM | 74.6 µM | 0.0171 µM | 0.00417 µM | 2.24 µM | ED50 [2]: 0.00939 µM; ED50 [3]: 5.36 µM; ED50 [4]: 6.95 µM; ED50 [5]: 0.946 µM; ED50 [8]: 0.00451 µM; ED50 [10]: 5.95 µM; ED50 [12]: 2.7 µM; ED50 [15]: 0.115 µM; ED50 [18]: 23.7 µM; ED50 [25]: 0.0287 µM; ED50 [27]: 44.8 µM; ED50 [28]: 249 µM; ED50 [29]: 0.0776 µM; ED50 [30]: 16.9 µM; ED50 [31]: 0.998 µM; ED50 [32]: 26.5 µM; ED50 [33]: 0.00121 µM; ED50 [34]: 0.175 µM; ED50 [39]: 0.000533 µM; ED50 [40]: 3.42 µM
Cc1ccc(C(=O)Nc2cccc(C(F)(F)F)c2)cc1Nc1nc(-c2cccnc2)nc2nn(C)cc12 | 0.137 µM | 0.431 µM | 40.6 µM | 1.04 µM | 13.9 µM | 0.501 µM | 0.191 µM | 18.3 µM | 0.0341 µM | 15.6 µM | 6.31 µM | 1.36 µM | 0.471 µM | 18.1 µM | 9.72 µM | 0.0325 µM | 0.514 µM | 0.291 µM | 0.819 µM | 6.99 µM | ED50 [41]: 0.0206 µM; ED50 [42]: 0.0871 µM; ED50 [43]: 0.0729 µM; ED50 [44]: 0.0084 µM; ED50 [45]: 0.0177 µM; ED50 [46]: 0.0524 µM; ED50 [47]: 0.19 µM; ED50 [40]: 0.545 µM
